{"source": "patent US20250352524A1", "about": "“PREVENTION OF METASTATIC OUTGROWTH USING TEAD INHIBITORS” (Georgetown University, priority 2024, published 2025)", "key": {"THP1 macrophages": {"system": "THP1 macrophages", "test": "qPCR gene expression in THP1 macrophages", "assay_type": "cell-based, human", "settings": "1 μM VT107 vs vehicle", "description": "To determine if knockdown of TEAD mimicked iTEAD effects, THP1 cells were transduced with shRNAs targeting TEAD 1, 3 and 4 or GFP as a control. Knockdown was confirmed by western blot with a pan TEAD antibody (FIG. 13, Panel A). […] TEAD knockdown in THP1 macrophages decreased protumor inflammatory cytokines CXCL2, 5, and 6 (FIG. 12, Panel C). […] Signaling pathways related to inflammatory diseases, such as rheumatoid arthritis, were decreased (FIG. 12, Panel D), as well as the inflammatory upstream regulators LPS and TNF (FIG. 12, Panel E). The score for M2-like upstream regulators, OSM (Shrivastava et al., 2019) and IL17A (Miller et al., 2020) was decreased by TEAD knockdown yet importantly, IL12 and the immune modulator used to enhance immunotherapy, NC410, scores were increased (Ramos et al., 2021) (FIG. 12, Panel D). Taken together, the response to iTEAD treatment or TEAD knockdown enhanced macrophages interaction with tumor cells and IL12 signaling. The global anti-inflammatory effect and the repression of the M2-like macrophage phenotypes are known to oppose the establishment of a hospitable metastatic niche (McGinnis et al., 2024; Sica et al., 2008; Noy & Pollard, 2014).\nTotal RNA was extracted from cell lines using a RNeasy Mini Kit (Qiagen, #74104) according to the manufacturer's instructions. cDNA from total RNA was made with the iScript cDNA synthesis kit according to the manufacturer's protocol (Biorad, #170-8891) and qPCR was performed in an iCycler iQ (BioRad) using the iQ SYBR Green Supermix (BioRad, #170-8882)."}, "[1]": {"system": "E0771 mammary carcinoma cells", "test": "E0771 mammary fat pad tumors in C57/BL6 mice, lung metastasis and lung immune profiling", "assay_type": "in vivo", "settings": "for primary tumor growth / size: 30 mg/kg daily oral gavage from palpable tumors (3 weeks), resection at week 4; for lung metastases (number of mice / incidence): 30 mg/kg daily vs vehicle, H&E lung sections", "experimental": "In this study, E0771 mammary carcinoma cells were injected into the MFP of C57/BL6 mice. Treatment for this group started after tumors were palpable at 3-4 weeks. Similarly, no effect was observed on the primary tumor growth, yet lung metastases were decreased (FIG. 3, Panels A and B). […] Additionally, lung infiltrating CD8+ T-cells increased in iTEAD-treated mice (FIG. 3, Panel D).\nE0771 cells were injected into the mammary fat pad of C57BL/6 mice (Johnstone et al., 2015). When primary tumors became palpable at 3 weeks, mice were treated daily with VT107 or vehicle control. Mice weights were monitored throughout treatment (FIG. 8, Panel B). Primary tumors were surgically resected at week 4 and mice were euthanized at week 6 to inspect lungs for metastases (FIG. 9, Panel A)\nThere was no difference in the primary tumor size between treatment groups nor the size of recurrent tumors at 6 weeks (FIG. 9, Panel B and FIG. 8, Panel C). […] To investigate tissue specific effects, gene expression changes between treatment groups in lung and tumor tissues were analyzed by RNA-sequencing. […] To reduce the impact of TEAD inhibition on cancer cell intrinsic function such as dissemination and invasion, 4T1, a triple negative mouse mammary carcinoma cell line (Pulaski & Ostrand-Rosenberg, 2000), was injected into the tail vein of BALB/c mice that directly seed into the lung tissue. A reduction in lung metastases, as well as the suppression of inflammatory pathways, were observed (FIG. 9, Panels E and F, and FIG. 8, Panel F).\nFormalin-fixed, paraffin embedded (FFPE) lung tissue sections were stained with hematoxylin and eosin. Immunohistochemistry staining was performed on FFPE tumor and lung tissue sections. Slides were deparaffinized in xylene and rehydrated following a series of ethanol washes. Heat-induced antigen retrieval was then performed by placing slides in warmed sodium citrate buffer (pH 6.0) (Invitrogen, 005000) in a pre-heated steamer for 20 minutes. Slides were cooled at room temperature for an additional 20 minutes, prior to quenching endogenous peroxidase activity using 3% hydrogen peroxide buffer (Fisher, BP2633500) for 10 minutes. Next, slides were incubated overnight at 4° C. with either anti-CD8 (Cell Signaling Technology, #98941), anti-CD68 (Abcam, ab303565), anti-CD206 (Cell Signaling Technology, #24595), or anti-F480 (Cell Signaling Technology, #70076). Following PBS washes, the slides are then stained with a biotinylated secondary antibody using the VECTASTAIN Elite ABC-HRP Kit according to the user's manual (Vector Laboratories, PK-6101). Positive brown staining was produced by applying ImmPACT DAB EqV Substrate Kit (Vector Laboratories, SK-4103) to the slides, which were then counterstained with hematoxylin (Sigma, MHS16). Images were captured using the Olympus BX40 microscope, and positive staining was quantified manually. Immunofluorescent staining was performed on lung tissue sections. Slides were baked at 60°, deparaffinized in xylene, rehydrated, washed in DI water and incubated with 10% neutral buffered formalin (NBF) for an additional 20 minutes to increase tissue-slide retention. Epitope retrieval/microwave treatment (MWT) for all antibodies was performed by boiling slides in Antigen Retrieval buffer 6 (AR6 pH6, Akoya AR6001KT). Protein blocking is performed using antibody diluent/blocking buffer (Akoya, ARD1001EA) for 10 minutes at room temperature. Slides were incubated with Luciferase antibody (Sigma, #L0159) for 1 hour and OPAL Fluoresce 620 then counterstained with spectral DAPI (Akoya FP1490) for 5 min and mounted with ProLong Diamond Antifade (ThernoFisher, P36961). Slides were scanned at 10× magnification using the Vectra 3.0 Automated Quantitative Pathology Imaging System (PerkinElmer/Akoya).\nSingle cell suspensions were washed 2× with PBS. […]"}, "[2]": {"settings": "flow cytometry, tumor bearing mice"}, "[3]": {"settings": "flow cytometry, tumor bearing mice, listed as iTEAD"}}, "note": "Entries after “also recorded” stand apart in the source; their conditions may differ.", "data": [{"substance": "VT107", "values": [{"measurement": "CD80 gene expression level", "setting": "THP1 macrophages", "value": "increase"}, {"measurement": "IL12 gene expression level", "setting": "THP1 macrophages", "value": "increase"}, {"measurement": "expression of YAP/TEAD target genes CTGF, S100Δ8 and S100Δ9", "setting": "THP1 macrophages", "value": "downregulated"}, {"measurement": "expression of YAP/TEAD target genes CTGF, S100Δ8 and S100Δ9", "setting": "THP1 macrophages; listed as iTEAD", "value": "decreased expression"}, {"measurement": "primary tumor growth / size", "setting": "[1]", "value": "no difference"}, {"measurement": "primary tumor growth / size", "setting": "[1]; listed as iTEAD", "value": "no effect; also recorded: no change"}, {"measurement": "lung metastases (number of mice / incidence)", "setting": "[1]", "value": "significantly less incidence"}, {"measurement": "lung metastases (number of mice / incidence)", "setting": "[1]; listed as iTEAD", "value": "decreased; also recorded: reduced"}, {"measurement": "number of CD8+ T-cells in lung tissue", "setting": "[1]; CD8 immunohistochemistry, tumor bearing mice, listed as iTEAD", "value": "increase in the number and infiltration; also recorded: significantly greater"}, {"measurement": "CD8+ T-cells in lung metastatic lesions", "setting": "[1]; CD8 immunohistochemistry, listed as iTEAD", "value": "infiltrated into lung metastases"}, {"measurement": "number of gene changes due to treatment, lungs compared to primary tumors", "setting": "[1]; RNA-sequencing", "value": "higher number"}, {"measurement": "size of recurrent tumors", "setting": "[1]; at 6 weeks, 2 weeks after resection", "value": "no difference"}, {"measurement": "CD86 (M1-like) in the lung macrophage population", "setting": "[1]; [2]", "value": "significantly enriched"}, {"measurement": "CD86/CD206 shift in the alveolar macrophage population", "setting": "[1]; [2]", "value": "also significant"}, {"measurement": "CD206 (M2-like) in the lung macrophage population", "setting": "[1]; [2]", "value": "significantly reduced"}, {"measurement": "infiltrating macrophages / monocytes in the lungs", "setting": "[1]; [3]", "value": "significant decrease"}, {"measurement": "lung infiltrating CD8+ T-cells", "setting": "[1]; [3]", "value": "increased; also recorded: higher numbers"}, {"measurement": "resident alveolar macrophages in the lungs", "setting": "[1]; [3]", "value": "higher frequency; also recorded: significant increase"}, {"measurement": "LXR/RXR anti-inflammatory pathway in lung tissues", "setting": "[1]; pathway analysis", "value": "increased"}, {"measurement": "disease-related inflammation pathways (hepatic and lung fibrosis, cardiac hypertrophy) in lung tissues", "setting": "[1]; pathway analysis", "value": "decrease"}]}]}
